The source made the active and inactive calls.

One assay concerns the target T1, Leucine aminopeptidase (Plasmodium falciparum 3D7, UniProt Q8IL11).
T1 sequence (Q8IL11 whole entry): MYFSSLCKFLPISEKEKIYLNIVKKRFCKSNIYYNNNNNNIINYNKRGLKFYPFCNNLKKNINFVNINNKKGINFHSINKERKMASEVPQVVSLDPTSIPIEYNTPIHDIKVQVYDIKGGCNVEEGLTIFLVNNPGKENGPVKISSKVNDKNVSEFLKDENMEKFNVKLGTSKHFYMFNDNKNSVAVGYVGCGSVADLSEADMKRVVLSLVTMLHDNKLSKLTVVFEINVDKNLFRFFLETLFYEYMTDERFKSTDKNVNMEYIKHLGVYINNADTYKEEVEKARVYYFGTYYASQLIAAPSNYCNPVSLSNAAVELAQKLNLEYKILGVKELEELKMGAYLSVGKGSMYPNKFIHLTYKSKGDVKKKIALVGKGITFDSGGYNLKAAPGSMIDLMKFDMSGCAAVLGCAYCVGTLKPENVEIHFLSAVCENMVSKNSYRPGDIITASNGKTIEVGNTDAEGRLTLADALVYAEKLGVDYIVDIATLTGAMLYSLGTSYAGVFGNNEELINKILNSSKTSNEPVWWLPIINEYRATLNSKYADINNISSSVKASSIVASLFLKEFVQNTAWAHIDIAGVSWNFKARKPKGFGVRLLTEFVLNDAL
The assay can be described thus: P. falciparum M17LAP inhibitors, primary screen, biochemical, fluorogenic H-Leu-NHMec substrate, 1536-well (AID 1619). The assay is classed as functional.

For assay [1], the target named is Ras and Rab interactor 1/Tyrosine-protein kinase ABL1 (Homo sapiens, UniProt P00519+Q13671). In kind it is functional.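 Further: biochemical TR-FRET dose-response test measuring inhibition of binding between Rin1 and Abl proteins.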
Ras and Rab interactor 1/Tyrosine-protein kinase ABL1, sequence (P00519 whole entry): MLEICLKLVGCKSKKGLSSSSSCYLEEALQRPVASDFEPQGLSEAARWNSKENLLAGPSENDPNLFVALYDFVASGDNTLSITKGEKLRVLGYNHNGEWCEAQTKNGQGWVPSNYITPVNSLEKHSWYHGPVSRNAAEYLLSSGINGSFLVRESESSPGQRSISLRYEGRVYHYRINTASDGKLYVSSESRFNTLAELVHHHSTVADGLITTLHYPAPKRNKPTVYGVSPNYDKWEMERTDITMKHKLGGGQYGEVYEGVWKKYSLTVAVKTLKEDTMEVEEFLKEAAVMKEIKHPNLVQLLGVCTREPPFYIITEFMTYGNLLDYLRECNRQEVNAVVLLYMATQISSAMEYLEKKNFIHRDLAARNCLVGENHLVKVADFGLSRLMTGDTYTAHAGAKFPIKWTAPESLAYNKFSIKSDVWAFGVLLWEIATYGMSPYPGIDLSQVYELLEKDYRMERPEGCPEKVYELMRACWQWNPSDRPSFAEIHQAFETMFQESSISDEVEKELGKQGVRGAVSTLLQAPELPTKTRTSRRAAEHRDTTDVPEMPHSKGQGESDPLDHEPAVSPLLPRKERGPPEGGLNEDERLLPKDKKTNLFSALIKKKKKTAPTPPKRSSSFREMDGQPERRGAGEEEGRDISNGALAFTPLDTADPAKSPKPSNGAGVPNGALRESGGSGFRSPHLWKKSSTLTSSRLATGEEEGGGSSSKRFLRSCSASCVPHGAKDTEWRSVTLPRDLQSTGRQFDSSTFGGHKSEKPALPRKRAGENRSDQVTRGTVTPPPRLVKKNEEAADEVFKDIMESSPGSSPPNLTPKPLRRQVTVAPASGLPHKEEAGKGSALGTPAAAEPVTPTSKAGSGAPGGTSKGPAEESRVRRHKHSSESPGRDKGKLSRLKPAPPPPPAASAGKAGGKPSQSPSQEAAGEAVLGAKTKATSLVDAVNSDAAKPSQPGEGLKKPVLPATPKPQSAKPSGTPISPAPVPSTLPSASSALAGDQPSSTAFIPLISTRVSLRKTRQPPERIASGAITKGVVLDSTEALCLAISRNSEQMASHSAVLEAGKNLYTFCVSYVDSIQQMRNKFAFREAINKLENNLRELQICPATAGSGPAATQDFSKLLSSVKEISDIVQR
Ras and Rab interactor 1/Tyrosine-protein kinase ABL1, sequence (Q13671 whole entry): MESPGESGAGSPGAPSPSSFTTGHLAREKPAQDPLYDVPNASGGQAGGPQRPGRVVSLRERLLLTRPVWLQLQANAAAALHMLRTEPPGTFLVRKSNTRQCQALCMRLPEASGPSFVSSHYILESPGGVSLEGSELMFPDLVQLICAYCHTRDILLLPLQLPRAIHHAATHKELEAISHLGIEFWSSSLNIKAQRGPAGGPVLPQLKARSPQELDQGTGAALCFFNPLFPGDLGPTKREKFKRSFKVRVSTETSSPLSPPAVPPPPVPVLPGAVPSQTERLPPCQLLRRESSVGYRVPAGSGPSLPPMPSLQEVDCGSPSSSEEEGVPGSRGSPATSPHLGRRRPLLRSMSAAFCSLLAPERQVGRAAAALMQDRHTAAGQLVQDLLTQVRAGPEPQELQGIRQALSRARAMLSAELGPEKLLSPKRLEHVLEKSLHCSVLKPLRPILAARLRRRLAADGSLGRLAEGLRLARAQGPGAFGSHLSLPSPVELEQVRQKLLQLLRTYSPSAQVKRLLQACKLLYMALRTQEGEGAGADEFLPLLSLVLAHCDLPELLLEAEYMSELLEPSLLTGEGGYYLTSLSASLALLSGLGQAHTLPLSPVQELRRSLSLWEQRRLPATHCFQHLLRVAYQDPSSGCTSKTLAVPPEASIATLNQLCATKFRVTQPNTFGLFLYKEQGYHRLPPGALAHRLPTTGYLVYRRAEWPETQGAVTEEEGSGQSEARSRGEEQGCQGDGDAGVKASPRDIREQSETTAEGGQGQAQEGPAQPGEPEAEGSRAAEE
For assay [2], the target named is Aryl hydrocarbon receptor (Homo sapiens, UniProt P35869). The note with it: Potency.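 Further: confirmatory quantitative high-throughput screen measuring activation of the AhR signaling pathway.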
Aryl hydrocarbon receptor, sequence (P35869 whole entry): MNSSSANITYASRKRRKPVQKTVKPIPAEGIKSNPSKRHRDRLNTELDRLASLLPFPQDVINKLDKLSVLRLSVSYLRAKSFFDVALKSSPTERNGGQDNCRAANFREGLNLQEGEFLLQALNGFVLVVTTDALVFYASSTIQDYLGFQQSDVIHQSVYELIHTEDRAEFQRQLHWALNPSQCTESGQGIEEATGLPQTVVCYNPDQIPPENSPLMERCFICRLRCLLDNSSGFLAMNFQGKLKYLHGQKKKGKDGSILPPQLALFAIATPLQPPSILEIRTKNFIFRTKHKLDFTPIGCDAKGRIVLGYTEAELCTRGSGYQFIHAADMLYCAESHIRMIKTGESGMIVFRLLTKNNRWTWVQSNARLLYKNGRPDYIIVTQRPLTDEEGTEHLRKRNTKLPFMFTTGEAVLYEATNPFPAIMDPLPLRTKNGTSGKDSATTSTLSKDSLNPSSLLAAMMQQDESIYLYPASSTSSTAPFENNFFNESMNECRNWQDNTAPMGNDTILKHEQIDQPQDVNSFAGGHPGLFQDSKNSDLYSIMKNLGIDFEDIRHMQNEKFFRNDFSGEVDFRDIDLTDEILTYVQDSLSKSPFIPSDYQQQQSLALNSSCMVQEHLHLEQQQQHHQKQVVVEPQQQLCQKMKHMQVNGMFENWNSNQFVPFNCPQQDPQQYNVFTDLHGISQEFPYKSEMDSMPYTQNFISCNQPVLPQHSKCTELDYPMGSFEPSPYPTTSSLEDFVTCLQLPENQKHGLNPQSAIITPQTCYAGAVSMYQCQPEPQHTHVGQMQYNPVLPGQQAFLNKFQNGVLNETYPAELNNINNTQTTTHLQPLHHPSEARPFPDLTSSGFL
Assay [3] can be described thus: inhibitors of Bluetongue virus cytopathic effect, confirmation, arbovirus, BSR cells (AID 1250).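 Further: protection from viral cytopathic effect measured as cell viability by ATP luminescence.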 In kind it is functional. A general note: Protection from cytopathic effect is a common read-out in antiviral testing.
The next assay deals with HEK293. The assay can be described thus: inhibitors of LMP1-driven NF-kB reporter, dose response, cell-based, HEK293, luciferase, cherry-pick (AID 588343). In kind it is functional. The note with it: Homo sapiens.
Another assay has as its target Interleukin-8 (Homo sapiens, UniProt P10145). The assay can be described thus: Dose Response confirmation of uHTS small molecule hits for cystic fibrosis induced NFkb Inhibitors in a PAF-induced IL8 counterscreen. The note with it: read-out: IC50_Mean. In kind it is functional.
The nature of assay [4]: inhibitors of HIV Env-driven cell fusion, dose response, cherry-pick (AID 652057). In kind it is functional, cell-based.
Assay [5] can be described thus: CEM21 lymphoblast cell cytotoxicity, dose response, cytotoxicity control for viral fusion inhibitor project, CellTiter-Glo luminescence, cherry-picked (AID 652042).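 Further: potency for signal decrease meaning cytotoxicity.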 The assay is classed as functional, cell-based. (In ATP-based viability assays light output follows the ATP content of the culture.)
The nature of assay [6]: ZM109 Env clade C HIV-1 fusion inhibitors, dose response, HeLa effector, CEM target cells, luciferase, cherry-pick (AID 652058). The assay is classed as functional, cell-based.
Assay [7] can be described thus: off-target signal loss in HeLa-CEM21 co-culture – HeLa F-luc CTL cells, cherry-picked, counter-screen for HIV-1 Env fusion inhibitor project, dose response (AID 652040).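 Further: potency for signal decrease marking cytotoxic or nonspecific inhibition.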 The assay is classed as functional, cell-based. (In general: Counterscreens check selectivity or assay interference.)
A short description of assay [8]: inhibitors of clade B AD8 Env fusion, dose response, cell-based, cherry-pick (AID 652062).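 Further: luciferase signal from cell-cell fusion driven by HIV-1 clade B AD8 Env; potency is for inhibitors of fusion seen as a drop in luminescence.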 In kind it is functional.
For assay [9], the target named is DNA (cytosine-5)-methyltransferase 1 (Homo sapiens, UniProt P26358). Put plainly: DNMT1 methyltransferase inhibitors, confirmation, biochemical, fluorescent molecular beacon (AID 602386). In kind it is functional.
DNA (cytosine-5)-methyltransferase 1, sequence (P26358 whole entry): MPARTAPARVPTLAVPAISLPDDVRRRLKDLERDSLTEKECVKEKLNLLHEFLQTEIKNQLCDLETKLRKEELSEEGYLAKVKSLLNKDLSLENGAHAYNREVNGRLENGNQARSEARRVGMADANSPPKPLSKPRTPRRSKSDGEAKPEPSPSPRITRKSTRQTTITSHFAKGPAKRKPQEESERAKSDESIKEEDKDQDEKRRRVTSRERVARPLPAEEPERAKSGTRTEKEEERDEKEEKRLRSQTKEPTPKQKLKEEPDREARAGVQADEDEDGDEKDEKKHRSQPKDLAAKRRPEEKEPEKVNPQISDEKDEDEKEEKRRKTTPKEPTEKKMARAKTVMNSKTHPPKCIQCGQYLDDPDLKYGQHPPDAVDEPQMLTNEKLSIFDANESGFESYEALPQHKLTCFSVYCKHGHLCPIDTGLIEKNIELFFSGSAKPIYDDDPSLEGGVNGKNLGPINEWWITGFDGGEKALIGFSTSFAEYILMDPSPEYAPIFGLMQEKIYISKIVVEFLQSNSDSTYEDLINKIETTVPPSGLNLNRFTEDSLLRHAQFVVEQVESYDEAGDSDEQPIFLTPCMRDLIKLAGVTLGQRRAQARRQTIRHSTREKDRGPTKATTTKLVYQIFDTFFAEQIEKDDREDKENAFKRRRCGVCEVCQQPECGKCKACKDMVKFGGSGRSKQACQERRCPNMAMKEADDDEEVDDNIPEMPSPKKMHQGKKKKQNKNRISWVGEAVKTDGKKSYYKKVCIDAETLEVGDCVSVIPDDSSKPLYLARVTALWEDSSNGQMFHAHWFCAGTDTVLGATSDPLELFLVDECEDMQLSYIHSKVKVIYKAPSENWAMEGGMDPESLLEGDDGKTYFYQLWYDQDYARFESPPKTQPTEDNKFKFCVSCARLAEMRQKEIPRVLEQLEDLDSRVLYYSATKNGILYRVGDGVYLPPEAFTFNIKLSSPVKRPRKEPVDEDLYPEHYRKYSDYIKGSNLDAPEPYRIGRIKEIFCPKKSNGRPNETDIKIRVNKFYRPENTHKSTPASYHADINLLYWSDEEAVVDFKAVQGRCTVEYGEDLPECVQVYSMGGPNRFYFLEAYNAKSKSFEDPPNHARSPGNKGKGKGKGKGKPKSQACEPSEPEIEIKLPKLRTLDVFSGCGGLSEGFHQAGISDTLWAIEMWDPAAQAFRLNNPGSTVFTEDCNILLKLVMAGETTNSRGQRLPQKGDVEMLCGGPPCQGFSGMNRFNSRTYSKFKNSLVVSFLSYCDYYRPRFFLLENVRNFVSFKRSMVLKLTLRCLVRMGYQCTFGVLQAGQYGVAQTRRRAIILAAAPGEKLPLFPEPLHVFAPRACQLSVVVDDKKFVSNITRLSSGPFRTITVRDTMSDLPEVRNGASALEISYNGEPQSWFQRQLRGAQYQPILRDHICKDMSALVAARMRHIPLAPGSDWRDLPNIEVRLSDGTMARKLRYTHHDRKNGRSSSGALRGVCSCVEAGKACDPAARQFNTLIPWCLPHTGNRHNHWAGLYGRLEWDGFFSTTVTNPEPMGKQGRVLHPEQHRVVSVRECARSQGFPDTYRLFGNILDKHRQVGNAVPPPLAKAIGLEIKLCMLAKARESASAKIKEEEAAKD
Another assay deals with Caspase-6 (Homo sapiens, UniProt P55212). The assay can be described thus: human caspase-6 inhibitors, dose response, biochemical, VEID-R110 fluorescence, cherry-pick (AID 720632).
Caspase-6, sequence (P55212 24-179 limits assumed): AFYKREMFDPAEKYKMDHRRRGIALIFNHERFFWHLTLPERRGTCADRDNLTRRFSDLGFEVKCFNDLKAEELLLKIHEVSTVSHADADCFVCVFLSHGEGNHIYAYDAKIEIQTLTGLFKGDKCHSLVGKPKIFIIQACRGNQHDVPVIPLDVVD
Caspase-6, sequence (P55212 194-293 limits assumed): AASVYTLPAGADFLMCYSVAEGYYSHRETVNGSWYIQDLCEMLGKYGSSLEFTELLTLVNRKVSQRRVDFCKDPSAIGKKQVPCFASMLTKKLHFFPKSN

Interleukin-8, sequence (P10145 whole entry, the tested form may be a part): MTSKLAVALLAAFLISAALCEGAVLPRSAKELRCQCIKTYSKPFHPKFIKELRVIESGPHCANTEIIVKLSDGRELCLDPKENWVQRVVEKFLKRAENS

Consider `Cc1ccc(-n2c(SCC(=O)N3Cc4ccccc4CC3C(=O)O)nnc2-c2cccnc2)c(C)c1` (stereo not drawn), for which the results for the IC50 (on Leucine aminopeptidase; in assay [1]) were 3.12 µM (active) and 24.9 µM (inactive), respectively.

For `CC(C)N1C(=O)c2ccccc2NS1(=O)=O` [BENTAZON], in assay [2], the AC50 (usually the midpoint of the concentration-response curve, whichever way the signal moves) was 79.4 µM (inconclusive).

On to `Clc1ccccc1C1=Nn2c(nnc2-c2ccncc2)SC1`, for which the IC50 is 22.6 µM (active) in assay [3] and 8.72 µM (active) at Interleukin-8. The AC50 with HEK293 is 14.2 µM (active); in assay [4], 3.15 µM (active); in [5] it was 63.6 µM (active); in [6], 1.45 µM (active); in assay [7], 1.96 µM (active); in assay [8], 1.83 µM (active).

For `O=C(O)CCc1ccc(S(=O)(=O)Nc2cc(C(F)(F)F)ccc2N2CCCC2)cc1`, the IC50 in assay [9] is 11.7 µM (active). For the same molecule, at Caspase-6, the AC50 was 38.4 µM (active).

The values are drawn from ChEMBL document CHEMBL1201862, “PubChem BioAssay data set” (2004).
